Measured values taken from ChEMBL document CHEMBL4145550, “Synthesis of N-(1-(6-acetamido-5-phenylpyrimidin-4-yl) piperidin-3-yl) amide derivatives as potential inhibitors for mitotic kinesin spindle protein” (Eur J Med Chem, 2018).
pIC50: −log10 of the molar value.

Tests used:
[1] = target: T1, Kinesin-like protein KIF11 (Homo sapiens, UniProt P52732); test: Inhibition of human mitotic kinesin Eg5 motor domain (1 to 368 residues) assessed as reduction in steady-state basal ATPase activity using ATP as substrate by pyruvate kinase/lactate dehydrogenase enzyme coupled assay
T1 sequence (P52732 whole entry): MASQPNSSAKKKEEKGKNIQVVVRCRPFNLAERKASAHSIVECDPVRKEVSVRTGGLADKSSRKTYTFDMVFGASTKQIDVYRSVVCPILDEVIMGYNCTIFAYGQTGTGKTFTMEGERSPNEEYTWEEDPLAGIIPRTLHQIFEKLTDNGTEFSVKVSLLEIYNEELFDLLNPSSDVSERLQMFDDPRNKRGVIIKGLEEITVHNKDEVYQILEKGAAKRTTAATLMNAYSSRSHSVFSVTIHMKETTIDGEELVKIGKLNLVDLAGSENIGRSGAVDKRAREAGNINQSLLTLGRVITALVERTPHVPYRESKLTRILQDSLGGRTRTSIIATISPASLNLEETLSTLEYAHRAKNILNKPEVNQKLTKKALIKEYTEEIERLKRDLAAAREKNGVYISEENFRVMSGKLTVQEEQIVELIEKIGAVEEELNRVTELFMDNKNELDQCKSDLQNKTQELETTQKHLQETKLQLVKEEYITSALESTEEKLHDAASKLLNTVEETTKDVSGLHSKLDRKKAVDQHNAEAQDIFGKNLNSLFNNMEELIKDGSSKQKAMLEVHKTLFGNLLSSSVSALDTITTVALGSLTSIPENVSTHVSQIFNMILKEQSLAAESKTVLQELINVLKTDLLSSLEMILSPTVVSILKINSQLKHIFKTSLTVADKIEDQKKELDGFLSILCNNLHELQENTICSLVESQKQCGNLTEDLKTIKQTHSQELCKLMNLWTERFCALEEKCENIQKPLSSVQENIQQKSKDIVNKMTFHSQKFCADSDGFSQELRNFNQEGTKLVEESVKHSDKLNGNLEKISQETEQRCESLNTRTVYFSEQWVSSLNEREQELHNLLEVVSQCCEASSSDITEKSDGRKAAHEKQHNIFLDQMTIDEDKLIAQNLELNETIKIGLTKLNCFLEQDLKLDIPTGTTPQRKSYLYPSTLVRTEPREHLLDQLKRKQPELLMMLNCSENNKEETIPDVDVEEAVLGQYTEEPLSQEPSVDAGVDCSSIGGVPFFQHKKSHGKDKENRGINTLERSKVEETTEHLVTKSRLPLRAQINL

[2] = target: T1, Kinesin-like protein KIF11; test: Inhibition of mitotic kinesin Eg5 (unknown origin)

pIC50 [1] | pIC50 [2] | Structure (SMILES)
5.04 |  | CC(=O)Nc1ncnc(N2CCCC(NC(=O)COc3cccc(Cl)c3)C2)c1-c1ccccc1 (centres undefined)
4.94 |  | CC(=O)Nc1ncnc(N2CCCC(NC(=O)Cc3cccc(F)c3)C2)c1-c1ccccc1 (centres undefined)
5.31 |  | CC(=O)Nc1ncnc(N2CCCC(NC(=O)c3cccc(C(F)(F)F)c3)C2)c1-c1ccccc1 (centres undefined)
 | 6.34 | COc1ccc(Nc2nc3cc(C(=O)O)ccc3n2Cc2ccccc2C(F)(F)F)cc1F
